29 compounds from US20250186437A1, “CARBOLINE COMPOUNDS AND USE THEREOF” (PTC Therapeutics, Inc., priority 2021, published 2025) can be followed below.

The assay relates to MOLM-13 cells. Briefly: MOLM-13 Cell Proliferation Assay (indicator of DHODH inhibition). Conditions: Homo sapiens, 72 Hours of culture, CellTiter-Glo, no uridine. It is filed as cell-based. The essentials: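 Proliferation readout via CellTiter-Glo luminescence after 72 h compound treatment (37 °C, 5% CO2, 0.5% DMSO) of MOLM-13 cells seeded at 10^4 per well in RPMI 1640/10% FBS, used as a DHODH-inhibition indicator since these cells rely on de novo pyrimidine synthesis.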

For orientation: IC50 means the point on the concentration scale where inhibition reaches its midpoint. The low end stands for higher potency, the high end for lower potency.

`Cc1nc(C#N)nc(N2CCc3c([nH]c4ccc(Cl)cc34)[C@@H]2c2cnc(N3CCOCC3)nc2)n1` [Compound 415, 4-{(1S)-6-chloro-1-[2-(morpholin-4-yl)pyrimidin-5-yl]-1,3,4,9-tetrahydro-2H-pyrido[3,4-b]indol-2-yl}-6-methyl-1,3,5-triazine-2-carbonitrile] came in with an IC50 of 50.6 nM. `Cc1nc(N2CCc3c([nH]c4cc(F)c(Cl)cc34)C2c2ccc(CCCCO)cc2)ncc1F` (centres unmarked) [Compound 240, 4-{4-[6-chloro-7-fluoro-2-(5-fluoro-4-methylpyrimidin-2-yl)-2,3,4,9-tetrahydro-1H-pyrido[3,4-b]indol-1-yl]phenyl}butan-1-ol]: the IC50 was found to be 4.1 nM.

Compound `Cc1ccc(C2c3[nH]c4cc(F)c(Cl)cc4c3CCN2c2nccc(C)n2)cc1` (centres unmarked) [Compound 42, 6-chloro-7-fluoro-1-(4-methylphenyl)-2-(4-methylpyrimidin-2-yl)-2,3,4,9-tetrahydro-1H-pyrido[3,4-b]indole] showed an IC50 of 20.3 nM. This IC50 is about 5-fold higher than that of the compound before. For the compound `Cc1cc(C)nc(N2CCc3c([nH]c4ccc(Cl)cc34)C2c2ccc(C)c(F)c2F)n1` (centres unmarked) [Compound 342, 6-chloro-1-(2,3-difluoro-4-methylphenyl)-2-(4,6-dimethylpyrimidin-2-yl)-2,3,4,9-tetrahydro-1H-pyrido[3,4-b]indole], the midpoint of inhibition, the IC50, lay at 1 nM. Against the preceding compound, the IC50 is about 20-fold lower. As for `Cc1ccc(C2c3[nH]c4ccc(Cl)c(F)c4c3CCN2c2nc(C)c(F)c(C)n2)cc1` (centres unmarked) [Compound 116, 6-chloro-5-fluoro-2-(5-fluoro-4,6-dimethylpyrimidin-2-yl)-1-(4-methylphenyl)-2,3,4,9-tetrahydro-1H-pyrido[3,4-b]indole], the IC50 is 6.7 nM. This IC50 lies about 6.7-fold higher than the previous one. In turn, `Fc1cc2[nH]c3c(c2cc1Cl)CCN(c1ncc(Cl)cn1)C3c1ccc(C(F)(F)F)cc1` (centres unmarked) [Compound 80, 6-chloro-2-(5-chloropyrimidin-2-yl)-7-fluoro-1-[4-(trifluoromethyl)phenyl]-2,3,4,9-tetrahydro-1H-pyrido[3,4-b]indole] registered a 50% inhibitory concentration (IC50) of 31 nM. Compound `Cc1nc(C)nc(N2CCc3c([nH]c4ccc(Cl)cc34)C2c2ccc(Br)c(F)c2F)n1` (centres unmarked) [Compound 283, 1-(4-bromo-2,3-difluorophenyl)-6-chloro-2-(4,6-dimethyl-1,3,5-triazin-2-yl)-2,3,4,9-tetrahydro-1H-pyrido[3,4-b]indole] came in with a half-inhibitory concentration (IC50) of 0.6 nM. Compound `Oc1cc(C2c3[nH]c4ccc(Cl)cc4c3CCN2c2ncc(F)cn2)ccc1Cl` (centres unmarked) [Compound 219, 2-chloro-5-[6-chloro-2-(5-fluoropyrimidin-2-yl)-2,3,4,9-tetrahydro-1H-pyrido[3,4-b]indol-1-yl]phenol] came in with a concentration for half-maximal inhibition (IC50) of 23.3 nM.

For the compound `Fc1c(Cl)ccc2[nH]c3c(c12)CCN(c1nccc(C(F)(F)F)n1)C3c1ccc(C(F)(F)F)cc1` (centres unmarked) [Compound 74, 6-chloro-5-fluoro-1-[4-(trifluoromethyl)phenyl]-2-[4-(trifluoromethyl)pyrimidin-2-yl]-2,3,4,9-tetrahydro-1H-pyrido[3,4-b]indole], the midpoint of inhibition, the IC50, lay at 5.7 nM.

Regarding `CN1CCN(c2ncc([C@H]3c4[nH]c5ccc(Cl)cc5c4CCN3c3nc(C(F)F)nc(C(F)(F)F)n3)cn2)CC1` [Compound 508, (1S)-6-chloro-2-[4-(difluoromethyl)-6-(trifluoromethyl)-1,3,5-triazin-2-yl]-1-[2-(4-methylpiperazin-1-yl)pyrimidin-5-yl]-2,3,4,9-tetrahydro-1H-pyrido[3,4-b]indole], the IC50 came to 0.8 nM. `O=C(O)CCNc1ncc([C@H]2c3[nH]c4ccc(Cl)cc4c3CCN2c2nc(C(F)(F)F)nc(C(F)(F)F)n2)cn1` [Compound 537, N-(5-{(1S)-2-[4,6-bis(trifluoromethyl)-1,3,5-triazin-2-yl]-6-chloro-2,3,4,9-tetrahydro-1H-pyrido[3,4-b]indol-1-yl}pyrimidin-2-yl)-β-alanine]: the midpoint of inhibition, the IC50, lay at 4 nM. Against the preceding compound, the IC50 is about 5-fold higher. In turn, `CSc1ncc(C2c3[nH]c4ccc(Cl)cc4c3CCN2c2nc(C)nc(C)n2)cn1` (centres unmarked) [Compound 346, 6-chloro-2-(4,6-dimethyl-1,3,5-triazin-2-yl)-1-[2-(methylsulfanyl)pyrimidin-5-yl]-2,3,4,9-tetrahydro-1H-pyrido[3,4-b]indole] returned an IC50 of 5.2 nM. The value for `O=[N+]([O-])c1c(Cl)ccc2[nH]c3c(c12)CCN(c1nccc(C(F)(F)F)n1)C3c1cnc(N2CCOCC2)nc1` (centres unmarked) [Compound 326, 6-chloro-1-[2-(morpholin-4-yl)pyrimidin-5-yl]-5-nitro-2-[4-(trifluoromethyl)pyrimidin-2-yl]-2,3,4,9-tetrahydro-1H-pyrido[3,4-b]indole] was 29.7 nM; that for `Cc1ccc(C2c3[nH]c4ccc(Cl)c(F)c4c3CCN2c2nc(C#N)cc(C#N)n2)cc1` (centres unmarked) [Compound 228, 2-[6-chloro-5-fluoro-1-(4-methylphenyl)-1,3,4,9-tetrahydro-2H-pyrido[3,4-b]indol-2-yl]pyrimidine-4,6-dicarbonitrile] was 4.4 nM. In the case of `Cc1ccc(C2c3[nH]c4ccc(Cl)c(F)c4c3CCN2c2nc(C)c(F)c(C)n2)c(F)c1F` (centres unmarked) [Compound 118, 6-chloro-1-(2,3-difluoro-4-methylphenyl)-5-fluoro-2-(5-fluoro-4,6-dimethylpyrimidin-2-yl)-2,3,4,9-tetrahydro-1H-pyrido[3,4-b]indole], the IC50 was 1 nM.

With `Cc1ccc(C2c3[nH]c4ccc(Cl)c(F)c4c3CCN2c2ncc(Cl)cn2)cc1` (centres unmarked) [Compound 21, 6-chloro-2-(5-chloropyrimidin-2-yl)-5-fluoro-1-(4-methylphenyl)-2,3,4,9-tetrahydro-1H-pyrido[3,4-b]indole], half-maximal inhibition (IC50) was put at 9.8 nM. Against the preceding compound, the IC50 is about 9.8-fold higher. `Fc1cc(N2CCOCC2)ccc1C1c2[nH]c3ccc(Cl)cc3c2CCN1c1nccc(C(F)(F)F)n1` (centres unmarked) [Compound 277, 6-chloro-1-[2-fluoro-4-(morpholin-4-yl)phenyl]-2-[4-(trifluoromethyl)pyrimidin-2-yl]-2,3,4,9-tetrahydro-1H-pyrido[3,4-b]indole] registered an IC50 of 5.4 nM.

The compound `CN(C)c1ncc(C2c3[nH]c4cc(F)c(Cl)cc4c3CCN2c2nccc(C(F)(F)F)n2)cc1F` (centres unmarked) [Compound 158, 5-{6-chloro-7-fluoro-2-[4-(trifluoromethyl)pyrimidin-2-yl]-2,3,4,9-tetrahydro-1H-pyrido[3,4-b]indol-1-yl}-3-fluoro-N,N-dimethylpyridin-2-amine] had an IC50 of 9.8 nM. This IC50 is about 1.8-fold higher than that of the compound before. Compound `N#Cc1ccc(C2c3[nH]c4ccc(Cl)c(F)c4c3CCN2c2ncc(F)cn2)cc1` (centres unmarked) [Compound 56, 4-[6-chloro-5-fluoro-2-(5-fluoropyrimidin-2-yl)-2,3,4,9-tetrahydro-1H-pyrido[3,4-b]indol-1-yl]benzonitrile] had a concentration for half-maximal inhibition (IC50) of 25.7 nM.

In turn, `Fc1c(Cl)ccc2[nH]c3c(c12)CCN(c1nccc(C(F)(F)F)n1)C3c1ccc(Cl)cc1` (centres unmarked) [Compound 73, 6-chloro-1-(4-chlorophenyl)-5-fluoro-2-[4-(trifluoromethyl)pyrimidin-2-yl]-2,3,4,9-tetrahydro-1H-pyrido[3,4-b]indole] registered an IC50 of 4.1 nM. The value for `CSc1nc(N2CCc3c([nH]c4ccc(Cl)cc34)[C@@H]2c2ccc(N3CCN(C)CC3)nc2)nc(C(F)(F)F)n1` [Compound 489, (1S)-6-chloro-1-[6-(4-methylpiperazin-1-yl)pyridin-3-yl]-2-[4-(methylsulfanyl)-6-(trifluoromethyl)-1,3,5-triazin-2-yl]-2,3,4,9-tetrahydro-1H-pyrido[3,4-b]indole] was 1.6 nM.

Consider `Cc1ccc(C2c3[nH]c4ccc(Cl)c(F)c4c3CCN2c2nccc(Cl)n2)cc1` (centres unmarked) [Compound 28, 6-chloro-2-(4-chloropyrimidin-2-yl)-5-fluoro-1-(4-methylphenyl)-2,3,4,9-tetrahydro-1H-pyrido[3,4-b]indole], for which it took 4.4 nM to reach half-maximal inhibition (IC50).

With `Fc1ccc(C2c3[nH]c4ccc(Cl)cc4c3CCN2c2nccc(Cl)n2)cc1` (centres unmarked) [Compound 13, 6-chloro-2-(4-chloropyrimidin-2-yl)-1-(4-fluorophenyl)-2,3,4,9-tetrahydro-1H-pyrido[3,4-b]indole], the IC50 turned out to be 12.4 nM. For the compound `Cc1ccc(C2c3[nH]c4cc(F)c(Cl)cc4c3CCN2c2ncc(F)cn2)c(F)c1F` (centres unmarked) [Compound 138, 6-chloro-1-(2,3-difluoro-4-methylphenyl)-7-fluoro-2-(5-fluoropyrimidin-2-yl)-2,3,4,9-tetrahydro-1H-pyrido[3,4-b]indole], half-maximal inhibition (IC50) was put at 3.5 nM. As for `Cc1ccc([C@H]2c3[nH]c4ccc(Cl)cc4c3CCN2c2nc(C)c(F)c(C)n2)c(F)c1F` [Compound 412, (1S)-6-chloro-1-(2,3-difluoro-4-methylphenyl)-2-(5-fluoro-4,6-dimethylpyrimidin-2-yl)-2,3,4,9-tetrahydro-1H-pyrido[3,4-b]indole], the IC50 came out at 1 nM. With `FC(F)(F)c1ccnc(N2CCc3c([nH]c4ccc(Cl)cc34)C2c2ccc(Cl)cc2)n1` (centres unmarked) [Compound 349, 6-chloro-1-(4-chlorophenyl)-2-[4-(trifluoromethyl)pyrimidin-2-yl]-2,3,4,9-tetrahydro-1H-pyrido[3,4-b]indole], the IC50 was 3 nM. Against the preceding compound, the IC50 is about 3-fold higher. For `CN1CCN(c2ncc([C@H]3c4[nH]c5ccc(-n6nccn6)cc5c4CCN3c3nc(C(F)(F)F)nc(C(F)(F)F)n3)cn2)CC1` [Compound 501, (1S)-2-[4,6-bis(trifluoromethyl)-1,3,5-triazin-2-yl]-1-[2-(4-methylpiperazin-1-yl)pyrimidin-5-yl]-6-(2H-1,2,3-triazol-2-yl)-2,3,4,9-tetrahydro-1H-pyrido[3,4-b]indole], the midpoint of inhibition, the IC50, lay at 1.4 nM.

Consider `Fc1cc2[nH]c3c(c2cc1Cl)CCN(c1ncc(Cl)cn1)C3c1cccc(F)c1F` (centres unmarked) [Compound 131, 6-chloro-2-(5-chloropyrimidin-2-yl)-1-(2,3-difluorophenyl)-7-fluoro-2,3,4,9-tetrahydro-1H-pyrido[3,4-b]indole], for which the half-inhibitory concentration (IC50) turned out to be 9.2 nM. As to `Cc1cc(C(F)(F)F)nc(N2CCc3c([nH]c4cc(F)c(Cl)cc34)C2c2ccc(C#N)cc2)n1` (centres unmarked) [Compound 88, 4-{6-chloro-7-fluoro-2-[4-methyl-6-(trifluoromethyl)pyrimidin-2-yl]-2,3,4,9-tetrahydro-1H-pyrido[3,4-b]indol-1-yl}benzonitrile], the half-inhibitory concentration (IC50) stood at 2.3 nM.
